Reference: PubChem BioAssay (NCI)
In brackets after ≈: the same amount, converted by molar mass. Several values for one entry are separate records, joined by “and”; a condition that tells them apart may be missing. Equal entries are not always repeated.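 Growth conditions: 96-well plates. Treatment: test compound, 48 hours, 5 concentrations. Analysis: linear interpolation between bracketing concentrations; unreached endpoints set to highest concentration. GI50 = concentration required for 50% inhibition of growth. At the TGI there is no net growth.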 Activity calls are given as the source filed them. No stated cut-off is given here; in the data, active means GI50 below about 0.43 µM; inactive means the rest.

Tests used:
Assay in all cases: NCI-60 cell line screen, 48 h
MDA-N = tested on: MDA-N
DMS 114 small cell lung = tested on: DMS 114 small cell lung
LXFL 529 NSCLC = tested on: LXFL 529 NSCLC
DMS 273 small cell lung = tested on: DMS 273 small cell lung
KM20L2 colon = tested on: KM20L2 colon
XF 498 CNS = tested on: XF 498 CNS
HOP-18 NSCLC = tested on: HOP-18 NSCLC
T-47D breast = tested on: T-47D breast

O=C1NC(c2cccc3ccccc23)Nc2ccccc21 (stereo not given)
TGI (MDA-N): 0.00629 µM and 0.0586 µM

CC(=O)OC(C)(C)C[N+](=O)[O-]
TGI (DMS 114 small cell lung): > 100 µM
TGI (LXFL 529 NSCLC): > 100 µM
TGI (DMS 273 small cell lung): > 100 µM
TGI (KM20L2 colon): > 100 µM

CC1(C)C=C(N2CCN(C3=CC(C)(C)NC(C)(C)C3)CC2)CC(C)(C)N1
TGI (DMS 114 small cell lung): > 100 µM
TGI (XF 498 CNS): > 100 µM
TGI (HOP-18 NSCLC): > 100 µM
TGI (LXFL 529 NSCLC): > 100 µM
TGI (DMS 273 small cell lung): > 100 µM
TGI (KM20L2 colon): > 100 µM

CC(O)(c1ccc(OCCC[N+](C)(C)C)cc1)C(C)(O)c1ccc(OCCC[N+](C)(C)C)cc1 (stereo not given)
TGI (DMS 114 small cell lung): > 100 µM
TGI (HOP-18 NSCLC): > 100 µM
TGI (LXFL 529 NSCLC): > 100 µM
TGI (DMS 273 small cell lung): > 100 µM
TGI (KM20L2 colon): > 100 µM

O=C(Nc1cccc(-n2ccc3c(NC(=O)c4ccccc4)nccc32)c1)c1ccc(Cl)c(Cl)c1
GI50 (T-47D breast): 1.32 µM
TGI (T-47D breast): 2.85 µM

Cc1ccc2c(c1)C(=O)/C(=C/c1cccc(OCC(=O)c3ccc(Cl)cc3)c1)CS2
GI50 (T-47D breast): 5.67 µM
TGI (T-47D breast): 26.5 µM

CCC1=CCC(P(=O)(c2ccccc2)c2ccccc2)CC1C (stereo not given)
TGI (DMS 114 small cell lung): > 100 µM
TGI (XF 498 CNS): > 100 µM
TGI (HOP-18 NSCLC): > 100 µM
TGI (LXFL 529 NSCLC): > 100 µM
TGI (DMS 273 small cell lung): > 100 µM
TGI (KM20L2 colon): > 100 µM

Cc1cc(=O)n2c(cc3cccccc32)n1
TGI (LXFL 529 NSCLC): > 100 µM
TGI (DMS 273 small cell lung): > 100 µM
TGI (KM20L2 colon): > 100 µM

CCN(CC)CCNc1ccc(N=Nc2cnc3ccccc3c2)c2ccccc12
GI50 (T-47D breast): 1.81 µM
TGI (T-47D breast): 4.08 µM

C=C(C)C1CC=C(C)C(O)([C@@]2(O)C[C@H](C(=C)C)CC=C2C)C1 (stereo not given in full)
TGI (DMS 114 small cell lung): > 100 µM
TGI (XF 498 CNS): 29.7 µM
TGI (LXFL 529 NSCLC): > 100 µM
TGI (DMS 273 small cell lung): 39.9 µM

O=C(O)C1C2C=CC(O2)C1C(=O)NCc1ccncc1 (stereo not given)
TGI (MDA-N): > 100 µM
TGI (T-47D breast): > 100 µM

Cc1nccc2c3ccc(OCc4cn(-c5ccc(Br)cc5)nn4)cc3n(CCCc3ccccc3)c12
GI50 (T-47D breast): > 100 µM
TGI (T-47D breast): > 100 µM

CC[C@H](C)C(=O)O[C@H]1CCC=C2C=C[C@H](C)[C@H](CC[C@@H]3C[C@@H](O)CC(=O)O3)[C@H]21
GI50 (T-47D breast): 21.9 µM
TGI (T-47D breast): > 100 µM

Cc1cc2oc(=O)cc(OC/C=C3/CCC(=O)O3)c2cc1C
GI50 (T-47D breast): 1.69 µM
TGI (T-47D breast): 7.5 µM

CC(C)c1ccc(C(O)(C(=O)O)c2ccc(C(C)C)cc2)cc1
TGI (MDA-N): > 100 µM
TGI (T-47D breast): > 100 µM

CCCc1nn(C)c(CCC(=O)N(Cc2ccccc2)Cc2ccccc2)c1CC
TGI (DMS 114 small cell lung): > 100 µM
TGI (XF 498 CNS): > 100 µM
TGI (HOP-18 NSCLC): > 100 µM
TGI (LXFL 529 NSCLC): > 100 µM
TGI (KM20L2 colon): > 100 µM

C=C1C(=O)O[C@H]2[C@H]1CC/C(CNC(=O)C(C)c1ccc(CC(C)C)cc1)=C\CC[C@@]1(C)O[C@@H]21 (stereo not given in full)
GI50 (T-47D breast): 1.78 µM
TGI (T-47D breast): 4.79 µM

CC1=C(C(=O)Nc2ccccc2C)C(c2ccccc2O)C(C(=O)Nc2ccccc2C)=C(C)N1
TGI (DMS 114 small cell lung): 50.4 µM
TGI (XF 498 CNS): 61.5 µM
TGI (HOP-18 NSCLC): 55.6 µM
TGI (LXFL 529 NSCLC): 51 µM
TGI (DMS 273 small cell lung): 35.2 µM
TGI (KM20L2 colon): 45.6 µM

CCOC(=O)Nc1cc2c(c(N)n1)N=C(c1ccccc1)CN2
TGI (T-47D breast): > 90.5 µM

O=C1C(c2ccccc2)=[N+]([O-])c2cc([N+](=O)[O-])ccc21
TGI (DMS 114 small cell lung): 27.3 µM
TGI (XF 498 CNS): 39.3 µM
TGI (HOP-18 NSCLC): > 100 µM
TGI (KM20L2 colon): 47.3 µM

N#Cc1ccc(C(=O)c2cnn(-c3ccc(F)cc3)c2N)cc1
GI50 (T-47D breast): > 25 µM
TGI (T-47D breast): > 25 µM

CC(=O)OCC1OC([S-])C(OC(C)=O)C(OC(C)=O)C1OC(C)=O.[Au+].c1ccc(CN2[CH-]N(Cc3ccccc3)C(c3ccccc3)=C2c2ccccc2)cc1
GI50 (T-47D breast): 1.72 µM and 0.417 µM
TGI (T-47D breast): 3.81 µM and 2.75 µM

C=C1C(=O)O[C@H]2C3OC3(C)CC/C=C(/C(=O)OC)[C@@H](OC(C)=O)[C@H](OC(=O)C3(C)OC3C)[C@H]12 (stereo not given in full)
GI50 (DMS 114 small cell lung): 0.604 µg/mL (≈ 1.3 µM)
TGI (DMS 114 small cell lung): 1.8 µg/mL
TGI (MDA-N): 3.46 µM
GI50 (T-47D breast): 4.6 µM
outcome (HOP-18 NSCLC): inactive
outcome (LXFL 529 NSCLC): inactive
GI50 (DMS 273 small cell lung): 1.1 µg/mL (≈ 2.37 µM)
TGI (DMS 273 small cell lung): 3.73 µg/mL
outcome (KM20L2 colon): inactive

Cc1c(C(=O)/C=C/c2ccc(Cl)cc2)nnn1-c1ccnc2c(C(F)(F)F)cccc12
GI50 (T-47D breast): > 100 µM
TGI (T-47D breast): > 100 µM

CCCCNP1(NCCCC)=NP(NCCCC)(NCCCC)=NP(NCCCC)(NCCCC)=NP(NCCCC)(NCCCC)=N1
GI50 (T-47D breast): 0.26 µM
TGI (T-47D breast): 3.07 µM
